# From publication PMC6345968, “Structural basis for species-selective targeting of Hsp90 in a pathogenic fungus” (Nature Communications, 2019)
# Several values for one entry are separate records, joined by “and”; a condition that tells them apart may be missing. Identical values can stand only once. Like-named read-outs stand apart in the source and are kept apart here.
# Assays:
# C. albicans Hsp90 NBD = biological target: T1, C. albicans Hsp90 NBD (Candida albicans, UniProt P46598); experiment: biochemical; type: binding; conditions: 0.1 nM Cy3-GdA, C. albicans NBD-Hsp90 (10 nM)
# T1 construct: C. albicans Hsp90 (E7-K218); made in house; host or cells: E. coli Rosetta2
# T1 sequence (P46598 7-218): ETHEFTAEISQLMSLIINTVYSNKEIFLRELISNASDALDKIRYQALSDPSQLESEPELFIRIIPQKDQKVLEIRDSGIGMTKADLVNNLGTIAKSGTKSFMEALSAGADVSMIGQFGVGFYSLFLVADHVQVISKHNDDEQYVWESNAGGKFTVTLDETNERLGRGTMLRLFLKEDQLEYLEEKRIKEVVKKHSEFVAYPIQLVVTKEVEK
# human Grp94 NBD = human Grp94 NBD (Homo sapiens, UniProt P14625); conditions: 0.1 nM Cy3-GdA, Experiments 1-3
# Sequence of human Grp94 NBD (P14625 63-337): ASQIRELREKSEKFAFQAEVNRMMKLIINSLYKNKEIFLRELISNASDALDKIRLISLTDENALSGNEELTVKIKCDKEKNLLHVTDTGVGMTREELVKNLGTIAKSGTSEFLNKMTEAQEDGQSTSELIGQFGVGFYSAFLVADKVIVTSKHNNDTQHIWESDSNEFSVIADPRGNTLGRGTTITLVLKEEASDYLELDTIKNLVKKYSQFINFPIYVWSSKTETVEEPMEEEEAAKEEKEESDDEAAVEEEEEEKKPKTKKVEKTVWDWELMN
# human Hsp90 NBD = human Hsp90 NBD (Homo sapiens, UniProt P08238); conditions: 0.1 nM Cy3-GdA, Human NBD-Hsp90 (10 nM); for FP signal (raw) / FP signal as fraction of no-compound (0 uM) control: Experiments 1-3
# Sequence of human Hsp90 NBD (P08238 1-223): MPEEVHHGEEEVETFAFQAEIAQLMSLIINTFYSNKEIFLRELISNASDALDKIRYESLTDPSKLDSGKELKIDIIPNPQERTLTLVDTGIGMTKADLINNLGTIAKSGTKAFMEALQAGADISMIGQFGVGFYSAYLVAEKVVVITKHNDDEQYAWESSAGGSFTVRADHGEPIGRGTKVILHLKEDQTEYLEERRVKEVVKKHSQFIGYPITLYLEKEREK
# Hsp90 in HEPG2 lysate = conditions: for FP signal / FP signal (raw): HepG2 lysate; for FP signal: raw
# [1] = biological target: T2, Hsp90 in C. albicans (SC5314) lysate (Candida albicans, UniProt P46598); experiment: biochemical; type: binding; conditions: for FP signal: raw
# T2 construct: endogenous in cells; host or cells: C. albicans SC5314 whole-cell lysate
# T2 sequence (P46598 whole entry): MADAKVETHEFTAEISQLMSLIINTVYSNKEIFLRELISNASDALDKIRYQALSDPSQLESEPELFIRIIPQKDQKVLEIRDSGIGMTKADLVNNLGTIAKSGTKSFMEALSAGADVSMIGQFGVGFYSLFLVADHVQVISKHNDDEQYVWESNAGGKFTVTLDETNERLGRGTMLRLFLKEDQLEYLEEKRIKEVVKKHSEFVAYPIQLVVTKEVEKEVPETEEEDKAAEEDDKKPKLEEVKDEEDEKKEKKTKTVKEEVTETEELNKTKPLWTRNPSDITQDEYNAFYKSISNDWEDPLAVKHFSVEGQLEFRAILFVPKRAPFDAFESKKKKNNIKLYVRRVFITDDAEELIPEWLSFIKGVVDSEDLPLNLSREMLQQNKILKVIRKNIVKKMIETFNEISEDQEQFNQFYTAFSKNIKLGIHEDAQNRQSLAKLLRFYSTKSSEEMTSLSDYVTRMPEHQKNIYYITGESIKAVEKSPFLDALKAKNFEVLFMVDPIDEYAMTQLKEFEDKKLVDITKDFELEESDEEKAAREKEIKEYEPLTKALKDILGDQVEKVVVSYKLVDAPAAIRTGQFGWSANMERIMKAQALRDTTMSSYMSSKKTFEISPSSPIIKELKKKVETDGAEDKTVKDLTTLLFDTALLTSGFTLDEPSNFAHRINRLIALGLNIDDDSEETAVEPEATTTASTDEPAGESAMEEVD
# Hsp90 in 3T3 lysate = experiment: FP competition in whole-cell lysate; type: binding, mouse; conditions: 3T3 lysate
# Experimental: After vortexing, cell lysate was frozen at −80 °C for 2 h, followed by thawing on ice. The vortex-freeze-thaw step was repeated. […] Aliquots were thawed immediately prior to use.
# [2] = Experiments 1-3, one value per experiment
# [3] = read-out: FP signal, fraction of control
smiles,measurement,setting,value
COc1ccc(CON=C2C=CC=CC3OC3CC(C)OC(=O)c3c(O)cc(O)cc3C2)cc1 (mixture of isomers) [LEB075],EC50,C. albicans Hsp90 NBD; [2],82.3 nM and 83.8 nM
same,FP signal (raw),"C. albicans Hsp90 NBD; Cmpd 0.002 uM, Experiments 1-3",109 and 127
same,FP signal as fraction of no-compound (0 uM) control,"C. albicans Hsp90 NBD; Cmpd 0.002 uM, Experiments 1-3",0.6412 and 0.7471
same,FP signal (raw),"C. albicans Hsp90 NBD; Cmpd 0.004 uM, Experiments 1-3",109
same,FP signal as fraction of no-compound (0 uM) control,"C. albicans Hsp90 NBD; Cmpd 0.004 uM, Experiments 1-3",0.6412 and 0.6941
same,FP signal (raw),"C. albicans Hsp90 NBD; Cmpd 0.008 uM, Experiments 1-3",101 and 104
same,FP signal as fraction of no-compound (0 uM) control,"C. albicans Hsp90 NBD; Cmpd 0.008 uM, Experiments 1-3",0.5941 and 0.6118
same,FP signal (raw),"C. albicans Hsp90 NBD; Cmpd 0.016 uM, Experiments 1-3",93 and 101
same,FP signal as fraction of no-compound (0 uM) control,"C. albicans Hsp90 NBD; Cmpd 0.016 uM, Experiments 1-3",0.5471 and 0.5941
same,FP signal (raw),"C. albicans Hsp90 NBD; Cmpd 0.063 uM, Experiments 1-3",72 and 79
same,FP signal as fraction of no-compound (0 uM) control,"C. albicans Hsp90 NBD; Cmpd 0.063 uM, Experiments 1-3",0.4235 and 0.4647
same,FP signal (raw),"C. albicans Hsp90 NBD; Cmpd 0.25 uM, Experiments 1-3",38 and 42
same,FP signal as fraction of no-compound (0 uM) control,"C. albicans Hsp90 NBD; Cmpd 0.25 uM, Experiments 1-3",0.2235 and 0.2471
same,FP signal (raw),"C. albicans Hsp90 NBD; Cmpd 0.5 uM, Experiments 1-3",24 and 26
same,FP signal as fraction of no-compound (0 uM) control,"C. albicans Hsp90 NBD; Cmpd 0.5 uM, Experiments 1-3",0.1412 and 0.1529
same,FP signal (raw),"C. albicans Hsp90 NBD; Cmpd 1 uM, Experiments 1-3",15 and 17
same,FP signal as fraction of no-compound (0 uM) control,"C. albicans Hsp90 NBD; Cmpd 1 uM, Experiments 1-3",0.1 and 0.08824
same,FP signal (raw),"C. albicans Hsp90 NBD; Cmpd 2 uM, Experiments 1-3",20
same,FP signal as fraction of no-compound (0 uM) control,"C. albicans Hsp90 NBD; Cmpd 2 uM, Experiments 1-3",0.1176
same,FP signal (raw),human Grp94 NBD; Cmpd 0.002 uM,157
same,FP signal (raw),human Grp94 NBD; Cmpd 0.004 uM,159
same,FP signal (raw),human Grp94 NBD; Cmpd 0.008 uM,150
same,FP signal (raw),human Grp94 NBD; Cmpd 0.016 uM,147
same,FP signal (raw),human Grp94 NBD; Cmpd 0.063 uM,136
same,FP signal (raw),human Grp94 NBD; Cmpd 0.25 uM,109
same,EC50,human Hsp90 NBD; [2],1650 nM and 1630 nM
same,FP signal (raw),human Hsp90 NBD; Cmpd 0.002 uM,147 and 148
same,FP signal as fraction of no-compound (0 uM) control,human Hsp90 NBD; Cmpd 0.002 uM,0.98 and 0.9737
same,FP signal (raw),human Hsp90 NBD; Cmpd 0.004 uM,148 and 151
same,FP signal as fraction of no-compound (0 uM) control,human Hsp90 NBD; Cmpd 0.004 uM,0.9867 and 0.9934
same,FP signal (raw),human Hsp90 NBD; Cmpd 0.008 uM,149
same,FP signal as fraction of no-compound (0 uM) control,human Hsp90 NBD; Cmpd 0.008 uM,0.9933 and 0.9803
same,FP signal (raw),human Hsp90 NBD; Cmpd 0.016 uM,150 and 149
same,FP signal as fraction of no-compound (0 uM) control,human Hsp90 NBD; Cmpd 0.016 uM,1 and 0.9803
same,FP signal (raw),human Hsp90 NBD; Cmpd 0.063 uM,147 and 150
same,FP signal as fraction of no-compound (0 uM) control,human Hsp90 NBD; Cmpd 0.063 uM,0.98 and 0.9868
same,FP signal (raw),human Hsp90 NBD; Cmpd 0.25 uM,141 and 143
same,FP signal as fraction of no-compound (0 uM) control,human Hsp90 NBD; Cmpd 0.25 uM,0.94 and 0.9408
same,FP signal (raw),human Hsp90 NBD; Cmpd 0.5 uM,130
same,FP signal as fraction of no-compound (0 uM) control,human Hsp90 NBD; Cmpd 0.5 uM,0.8667 and 0.8553
same,FP signal (raw),human Hsp90 NBD; Cmpd 1 uM,112 and 106
same,FP signal as fraction of no-compound (0 uM) control,human Hsp90 NBD; Cmpd 1 uM,0.7067 and 0.7368
same,FP signal (raw),human Hsp90 NBD; Cmpd 2 uM,58 and 61
same,FP signal as fraction of no-compound (0 uM) control,human Hsp90 NBD; Cmpd 2 uM,0.4067 and 0.3816
"COC1=C2C[C@@H](C)C[C@H](OC)[C@H](O)[C@@H](C)/C=C(\C)[C@H](OC(N)=O)[C@@H](OC)/C=C\C=C(/C)C(=O)NC(=CC1=O)C2=O [geldanamycin, reference compound]",Rel. to GdA,"Hsp90 in HEPG2 lysate; EC50 relative to GdA, HEPG2 lysate",1
same,FP signal,Hsp90 in HEPG2 lysate; 37.037 nM compound,93
same,FP signal (raw),"Hsp90 in HEPG2 lysate; 37.037 nM, listed as GdA",93
same,FP signal,Hsp90 in HEPG2 lysate; 111.111 nM compound,59
same,FP signal (raw),"Hsp90 in HEPG2 lysate; 111.111 nM, listed as GdA",59 and 55
same,FP signal (raw),Hsp90 in HEPG2 lysate; 0.25 uM,27
same,FP signal,Hsp90 in HEPG2 lysate; 333.333 nM compound,40
same,FP signal (raw),"Hsp90 in HEPG2 lysate; 333.333 nM, listed as GdA",40 and 41
same,FP signal (raw),Hsp90 in HEPG2 lysate; 0.5 uM,9
same,FP signal (raw),Hsp90 in HEPG2 lysate; 1 uM,5
same,FP signal,Hsp90 in HEPG2 lysate; 1000 nM compound,35
same,FP signal (raw),"Hsp90 in HEPG2 lysate; 1000 nM, listed as GdA",35 and 32
same,FP signal (raw),Hsp90 in HEPG2 lysate; 2 uM,-5
same,FP signal,Hsp90 in HEPG2 lysate; 3000 nM compound,30
same,FP signal (raw),"Hsp90 in HEPG2 lysate; 3000 nM, listed as GdA",30 and 27
same,FP signal (raw),"C. albicans Hsp90 NBD; Cmpd 0.002 uM, Experiments 1-3",98
same,remaining activity at 0.002 µM,"C. albicans Hsp90 NBD; Cmpd 0.002 uM, Experiments 1-3, read-out: FP signal as fraction of no-compound (0 uM) control",98%
same,FP signal (raw),"C. albicans Hsp90 NBD; Cmpd 0.004 uM, Experiments 1-3",97
same,remaining activity at 0.004 µM,"C. albicans Hsp90 NBD; Cmpd 0.004 uM, Experiments 1-3, read-out: FP signal as fraction of no-compound (0 uM) control",95.5%
same,FP signal (raw),"C. albicans Hsp90 NBD; Cmpd 0.008 uM, Experiments 1-3",92
same,remaining activity at 0.008 µM,"C. albicans Hsp90 NBD; Cmpd 0.008 uM, Experiments 1-3, read-out: FP signal as fraction of no-compound (0 uM) control",94.4%
same,remaining activity at 0.016 µM,"C. albicans Hsp90 NBD; Cmpd 0.016 uM, Experiments 1-3, read-out: FP signal as fraction of no-compound (0 uM) control",87%
same,remaining activity at 0.25 µM,"C. albicans Hsp90 NBD; Cmpd 0.25 uM, Experiments 1-3, read-out: FP signal as fraction of no-compound (0 uM) control",18.6%
same,FP signal (raw),"C. albicans Hsp90 NBD; Cmpd 0.5 uM, Experiments 1-3",18 and 19 and 10
same,remaining activity at 0.5 µM,"C. albicans Hsp90 NBD; Cmpd 0.5 uM, Experiments 1-3, read-out: FP signal as fraction of no-compound (0 uM) control",10.2%
same,remaining activity at […],"C. albicans Hsp90 NBD; Cmpd […], Experiments 1-3, read-out: FP signal as fraction of no-compound (0 uM) control",71.3%
same,Rel. to GdA,"[1]; EC50 relative to GdA, SC5314 lysate",1
same,FP signal,"[1]; SC5314 lysate, 0.457 nM compound",205
same,FP signal (raw),"[1]; SC5314 lysate, 0.457 nM, listed as GdA",205
same,FP signal,"[1]; SC5314 lysate, 1.372 nM compound",198
same,FP signal (raw),"[1]; SC5314 lysate, 1.372 nM, listed as GdA",198 and 206
same,remaining activity at 0.002 µM,"[1]; SC5314 lysate, 0.002 uM, read-out: FP signal, fraction of control",96.8%
same,remaining activity at 0.004 µM,"[1]; SC5314 lysate, 0.004 uM, read-out: FP signal, fraction of control",95.7%
same,remaining activity at […],"[1]; SC5314 lysate, 0.031 uM, read-out: FP signal, fraction of control",59.4%
same,FP signal,"[1]; SC5314 lysate, 37.037 nM compound",78
same,FP signal (raw),"[1]; SC5314 lysate, 37.037 nM, listed as GdA",78 and 81
same,FP signal (raw),"[1]; SC5314 lysate, 0.063 uM",48
same,remaining activity at 0.063 µM,"[1]; SC5314 lysate, 0.063 uM, read-out: FP signal, fraction of control",25.7%
same,FP signal,"[1]; SC5314 lysate, 111.111 nM compound",47
same,FP signal (raw),"[1]; SC5314 lysate, 111.111 nM, listed as GdA",47 and 43
same,FP signal (raw),"[1]; SC5314 lysate, 0.25 uM",2
same,remaining activity at 0.25 µM,"[1]; SC5314 lysate, 0.25 uM, read-out: FP signal, fraction of control",1.07%
same,FP signal (raw),"[1]; SC5314 lysate, 333.333 nM",33
same,FP signal,"[1]; SC5314 lysate, 333.333 nM compound",33
same,FP signal (raw),"[1]; SC5314 lysate, 0.5 uM",-7
same,remaining activity at 0.5 µM,"[1]; SC5314 lysate, 0.5 uM, read-out: FP signal, fraction of control",-3.74%
same,FP signal (raw),"[1]; SC5314 lysate, 1 uM",-4
same,FP signal (raw),"[1]; SC5314 lysate, 1000 nM",30
same,FP signal,"[1]; SC5314 lysate, 1000 nM compound",30
same,FP signal (raw),"[1]; SC5314 lysate, 2 uM",-6
same,remaining activity at 2 µM,"[1]; SC5314 lysate, 2 uM, read-out: FP signal, fraction of control",-3.21%
same,FP signal,"[1]; SC5314 lysate, 3000 nM compound",30
same,FP signal (raw),"[1]; SC5314 lysate, 3000 nM, listed as GdA",30 and 28
same,remaining activity at 0.008 µM,[1]; [3],91.4%
same,remaining activity at 0.016 µM,[1]; [3],79.1%
same,remaining activity at 1 µM,[1]; [3],-2.14%
same,FP signal (raw),Hsp90 in 3T3 lysate; 0.002 uM,254
same,FP signal (raw),Hsp90 in 3T3 lysate; 0.004 uM,250
same,FP signal (raw),Hsp90 in 3T3 lysate; 0.008 uM,250
same,FP signal (raw),Hsp90 in 3T3 lysate; 0.016 uM,252
same,FP signal (raw),Hsp90 in 3T3 lysate; 0.063 uM,213
same,FP signal (raw),Hsp90 in 3T3 lysate; 0.25 uM,76
same,FP signal (raw),Hsp90 in 3T3 lysate; 0.5 uM,34
same,FP signal (raw),Hsp90 in 3T3 lysate; 1 uM,23
